Measured values: PubChem BioAssay (NCI)
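How tested: cells in 96-well plates exposed to compound for 48 hours at five concentrations. Here, GI50 denotes the concentration required for 50% inhibition of growth. TGI denotes the concentration required for complete inhibition of growth.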

How the values were obtained:
Assay in all cases: NCI anticancer screen, dose series, 48 h
SF-295 CNS = system: SF-295 CNS
RPMI-8226 leukemia = system: RPMI-8226 leukemia
MALME-3M melanoma = system: MALME-3M melanoma
SN12C renal = system: SN12C renal
SW-620 colon = system: SW-620 colon
UACC-62 melanoma = system: UACC-62 melanoma
SF-268 CNS = system: SF-268 CNS
NCI/ADR-RES ovarian = system: NCI/ADR-RES ovarian
SK-MEL-5 melanoma = system: SK-MEL-5 melanoma
SF-539 CNS = system: SF-539 CNS

| SMILES | TGI (SF-295 CNS) | TGI (RPMI-8226 leukemia) | TGI (MALME-3M melanoma) | TGI (SN12C renal) | TGI (SW-620 colon) | TGI (UACC-62 melanoma) | TGI (SF-268 CNS) | TGI (NCI/ADR-RES ovarian) | TGI (SK-MEL-5 melanoma) | TGI (SF-539 CNS) | GI50 (SF-295 CNS) | GI50 (RPMI-8226 leukemia) | GI50 (MALME-3M melanoma) | GI50 (SN12C renal) | GI50 (SW-620 colon) | GI50 (UACC-62 melanoma) | GI50 (SF-268 CNS) | GI50 (NCI/ADR-RES ovarian) | GI50 (SK-MEL-5 melanoma) | GI50 (SF-539 CNS) |
| --- | --- | --- | --- | --- | --- | --- | --- | --- | --- | --- | --- | --- | --- | --- | --- | --- | --- | --- | --- | --- |
| CN1COCc2cc3cc4c(cc3nc21)OCCO4 | > 100 µM | 62.5 µM | > 100 µM | > 100 µM | > 100 µM | > 100 µM | > 100 µM | > 100 µM | > 100 µM | > 100 µM | – | – | – | – | – | – | – | – | – | – |
| COc1cc(CC(C)N)ccc1O (stereo not given) | > 100 µM | > 100 µM | > 100 µM | > 100 µM | > 100 µM | > 100 µM | > 100 µM | > 100 µM | > 100 µM | > 100 µM | – | – | – | – | – | – | – | – | – | – |
| COC(=O)c1cc2c(cc1CC(Cc1ccc3c(c1)CCC3)C(=O)OC)CCC2 (stereo not given) | > 100 µM | 66.8 µM | > 100 µM | > 100 µM | > 100 µM | > 100 µM | > 100 µM | > 100 µM | 67.6 µM | > 100 µM | – | – | – | – | – | – | – | – | – | – |
| O=C(Nc1ccc(-n2cc(-c3ccncc3)c(-c3ccc(O)c(Cl)c3)n2)cc1)Nc1cccc(Cl)c1Cl | > 32.5 µM | 6.08 µM | > 32.5 µM | > 32.5 µM | > 32.5 µM | > 32.5 µM | > 32.5 µM | > 32.5 µM | > 32.5 µM | 9.27 µM | 6.13 µM | 0.912 µM | 4.94 µM | 19.9 µM | 20.6 µM | 9.79 µM | 18.6 µM | > 32.5 µM | 3.26 µM | 2.04 µM |
| COc1ccc(/C=N/N2C(=O)c3c(N)c(C#N)c(-c4ccccc4)c(-c4ccccc4)c3C2=O)cc1 | > 100 µM | > 100 µM | > 100 µM | > 100 µM | > 100 µM | > 100 µM | > 100 µM | > 100 µM | > 100 µM | > 100 µM | – | – | – | – | – | – | – | – | – | – |
| O=C(O)c1ccc2c(c1)CC1(C2)Cc2cc3c(cc2C1=O)CCC3 (stereo not given) | > 100 µM | > 100 µM | > 100 µM | > 100 µM | > 100 µM | > 100 µM | > 100 µM | > 100 µM | > 100 µM | > 100 µM | – | – | – | – | – | – | – | – | – | – |
| CC12CC1C(c1cccc([N+](=O)[O-])c1)(c1cccc([N+](=O)[O-])c1)N=N2 (stereo not given) | > 100 µM | 35.9 µM | 53.1 µM | 55 µM | > 100 µM | 44.1 µM | > 100 µM | 59.3 µM | > 100 µM | 52.9 µM | – | – | – | – | – | – | – | – | – | – |
| Cc1ccc(S(=O)(=O)NC(=O)NNc2ccc(F)cc2)cc1 | > 100 µM | > 58.2 µM | > 100 µM | > 100 µM | > 100 µM | > 100 µM | > 100 µM | > 100 µM | > 100 µM | > 100 µM | – | – | – | – | – | – | – | – | – | – |
| COc1ccc(N=Nc2c3c(c(O)c4ccccc24)CCC(C)(C)O3)cc1 | 30.3 µM | 98.1 µM | 40.6 µM | 38.7 µM | > 100 µM | 28.6 µM | 31.5 µM | > 100 µM | 24.9 µM | 62.3 µM | – | – | – | – | – | – | – | – | – | – |
